Assay results taken from patent US7041785B1, “B1-bradykinin receptor antagonists and use thereof” (Université de Sherbrooke, priority 1996, dated 2006).
Non-standard residues stand in square brackets, D forms with d. Residues, ends and D or L forms follow the SMILES beside them. Oic = O=C(O)[C@@H]1C[C@@H]2CCCC[C@@H]2N1; d2Nal = N[C@H](Cc1ccc2ccccc2c1)C(=O)O; Hyp = O=C(O)[C@@H]1C[C@@H](O)CN1; dTic = O=C(O)[C@H]1Cc2ccccc2CN1; 2Thi = N[C@@H](Cc1cccs1)C(=O)O

What was measured:
[1] = biological target: T1, human B1 receptor (Homo sapiens, UniProt P46663); assay: cell-based; details: Human umbilical vein B1 receptor pA2, vs desArg9BK, HOE140 400 nmol/L present
T1 sequence (P46663 1-353): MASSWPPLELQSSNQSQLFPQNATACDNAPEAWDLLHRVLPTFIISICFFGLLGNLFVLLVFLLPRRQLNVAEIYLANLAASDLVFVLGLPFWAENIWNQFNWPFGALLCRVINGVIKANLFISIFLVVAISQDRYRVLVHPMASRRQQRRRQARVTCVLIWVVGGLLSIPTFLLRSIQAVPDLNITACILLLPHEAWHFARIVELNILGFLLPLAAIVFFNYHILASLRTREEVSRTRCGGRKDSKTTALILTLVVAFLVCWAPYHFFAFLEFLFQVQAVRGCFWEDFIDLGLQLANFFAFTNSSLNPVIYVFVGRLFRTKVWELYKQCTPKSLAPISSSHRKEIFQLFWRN
From the text: (§1) Tissues were taken from New Zealand white rabbits (1.5–2.5 kg) and Dunken Hartley guinea pigs (250–350 g) of either sex, killed by stunning and exsanguination. Umbilical cords were taken from healthy women 22–40 years old after spontaneous delivery at term. The rabbit jugular vein (RbJV), the guinea pig ileum (GPI), two preparations containing B2 receptors, the rabbit aorta (RbA) (B1 receptor) and the human umbilical vein (HUV), a mixed preparation containing both B1 and B2 receptors^10, were used. Helical strips of RbJV treated with 1 μmol/L of captopril to avoid peptide degradation by the angiotensin-converting enzyme (ACE), alias kininase II were prepared according to Gaudreau et al.^11 Helical strips of RbA devoid of endothelium were prepared according to Furchgott and Bhadrakom^12. Longitudinal segments of GPI were prepared with the procedure described by Rang^13. Helical strips of HUV were prepared according to Gobeil et al.^10. The tissues were suspended in 10-ml organ baths containing warm (37EC), oxygenated (95% O2–5% CO2) Krebs solution of the following composition in mmol/L; NaCl: 118.1; KCl: 4.7; CaCl26H2O: 2.5; KH2PO4: 1.2; MgSO47H2O: 1.18; NaHCO3: 25.0 and D-Glucose: 5.5. The RbA and the HUV were stretched with an initial tension of 2 g, whereas the RbJV and the GPI were loaded with 0.5 g. Changes of tension produced by the various agents were measured with Grass isometric transducers (model FT 03C, Grass Instrument Co., Quincy, Mass.). […] Before testing the drugs, the tissues were allowed to equilibrate for 60–120 min during which time the tissues were repeatedly washed and the tension readjusted every 15 min.
(§2) At the beginning of each experiment, a submaximal dose of bradykinin (BK) (9 nmol/L), was applied repeatedly on the RbJV, the GPI or the HUV to ensure that tissues responded with stable contractions. […] A similar protocol was used for the HUV.
(§3) Repeated applications of a singl and double concentration of BK (on RbJV, GPI and HUV) and of desArg^9BK (RbA and HUV) were made in the absence and in presence of the various peptides to evaluate their apparent affinities as antagonists, in terms of pA2 (-log10 of the molar concentration of antagonist that reduces the effect of a double concentration of agonist to that of a single one)^14. The antagonists were applied 10 min before measuring the myotropic effects of either BK (the B2 receptor agonist) or desArg^9BK (the B1 receptor agonist). […] All kinin antagonists were initially applied to tissues at concentration of 10 μg/mL to measure their potential agonistic activities (α^E) in comparison with BK (in the B2 receptor preparations) or desArg^9BK (in the B1 receptor preparations).

[2] = biological target: T2, B2 receptor (Oryctolagus cuniculus, UniProt Q28642); details: vs BK; captopril 1 μmol/L; Inactive = no detectable antagonistic effect at ≦ 10 μg/ml
T2 sequence (Q28642 1-367): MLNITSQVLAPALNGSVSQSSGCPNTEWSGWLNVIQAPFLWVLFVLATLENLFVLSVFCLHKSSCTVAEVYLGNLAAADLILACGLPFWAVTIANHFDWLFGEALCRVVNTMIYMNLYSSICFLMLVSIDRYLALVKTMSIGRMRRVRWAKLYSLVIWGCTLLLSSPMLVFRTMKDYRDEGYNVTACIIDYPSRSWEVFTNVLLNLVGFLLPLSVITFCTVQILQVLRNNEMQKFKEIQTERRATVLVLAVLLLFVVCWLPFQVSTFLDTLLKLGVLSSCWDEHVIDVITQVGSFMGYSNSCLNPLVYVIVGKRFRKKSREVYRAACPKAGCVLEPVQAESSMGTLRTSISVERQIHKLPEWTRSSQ

[3] = biological target: T3, B1 receptor (Oryctolagus cuniculus, UniProt P48748); assay: cell-based; details: Rb.A. pA2, apparent affinity as antagonist vs desArg9BK; antagonist applied 10 min before; Inactive = no detectable antagonistic effect at ≦ 10 μg/ml
T3 sequence (P48748 1-352): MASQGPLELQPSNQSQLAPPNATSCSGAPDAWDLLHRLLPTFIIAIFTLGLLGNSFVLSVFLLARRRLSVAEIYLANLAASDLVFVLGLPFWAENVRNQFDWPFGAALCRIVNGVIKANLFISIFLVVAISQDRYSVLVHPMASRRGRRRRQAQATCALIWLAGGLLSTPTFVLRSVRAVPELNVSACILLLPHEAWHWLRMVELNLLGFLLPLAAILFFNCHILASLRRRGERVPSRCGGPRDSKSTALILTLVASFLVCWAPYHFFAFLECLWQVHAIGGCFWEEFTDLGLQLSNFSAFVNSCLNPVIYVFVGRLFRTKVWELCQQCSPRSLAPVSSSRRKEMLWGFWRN
From the text: as §1, §2, §3

[4] = biological target: T4, B2 receptor (Cavia porcellus, UniProt O70526); assay: cell-based; details: for G.P.I. pA2: vs BK, Inactive = no detectable antagonistic effect at ≦ 10 μg/ml, F.ag. full agonist, P.ag. partial agonist
T4 sequence (O70526 1-372): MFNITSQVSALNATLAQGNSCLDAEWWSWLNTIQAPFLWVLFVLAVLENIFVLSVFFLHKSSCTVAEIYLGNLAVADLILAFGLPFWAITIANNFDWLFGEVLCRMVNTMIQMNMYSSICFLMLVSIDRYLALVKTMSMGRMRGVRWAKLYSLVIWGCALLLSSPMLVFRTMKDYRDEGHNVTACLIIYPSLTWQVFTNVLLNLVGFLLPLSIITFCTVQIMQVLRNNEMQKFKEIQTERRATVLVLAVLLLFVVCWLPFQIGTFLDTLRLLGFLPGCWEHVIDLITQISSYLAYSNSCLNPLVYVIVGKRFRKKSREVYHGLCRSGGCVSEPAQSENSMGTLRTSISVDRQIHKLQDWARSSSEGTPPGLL
From the text: as §1, §2, §3

[5] = tested on: T5, angiotensin-converting enzyme (ACE); assay: Metabolic degradation by purified angiotensin-converting enzyme, HPLC analysis; type: in vitro ADME, rabbit; details: rabbit, isolated enzyme ace, pH 7.5
T5 construct: purified angiotensin-converting enzyme (ACE) from rabbit lungs; purchased Sigma, St-Louis, Mo; host or cells: purified from rabbit lungs
Method: The metabolic stability of various kinin-related peptides was evaluated by incubating the peptide in the presence of purified angiotensin-converting enzyme (ACE) from rabbit lungs (purchased from Sigma, St-Louis, Mo.) dissolved in phosphate buffered saline (PBS) (50 mmol/L, pH 7.5 containing 300 mmoL/L NaCl); the final concentration of enzyme was 45 μg/mL. The experimental protocol for the measurement of ACE activity has been described elsewhere^15,16. Briefly, 200 μmol/L of peptides (40 μL) were placed in a PBS buffer and incubated for 5 min at 37EC before adding 8.5 μL of ACE (total volume of the reaction medium; 190 μL). Samples were withdrawn at 30 min intervals, immersed in boiling water for 5 min, then cooled on ice and centrifuged (5 min) before proceeding to analysis of peptides by high pressure liquid chromatography (HPLC). Results of ACE metabolism are expressed in percent of kinin degradation following the incubation (30 min) of kinin substrates with the enzyme.
Pure peptides and metabolic products were analysed by reverse-phas HPLC on a C18 μBondapak column (4.6 mm×25 cm) (Waters) of 10-μm particle size. The peptides and their fragments were eluted at the rate of 2.0 mL/min. with a linear gradient ranging from 5 to 65% of acetonitrile/TFA 0.05%/water over 20 min. at room temperature. The elution positions of these peptides were determined by following the absorbance at 214 nm. For each assay, 50 μL of the reaction medium (treated or not with ACE) were extracted and injected into the column. Concentrations of the peaks products, different from the peaks of the peptide substrate, were estimated using a computer software program (Baseline 810; Waters) that controlled also all the chromatography operations. Isolated metabolites and substrates were collected and identified by Electrospray mass spectrometry (positive mode).

[6] = biological target: T2, B2 receptor; assay: cell-based
From the text: as §1, §2, §3

| SMILES | Kb [1] [nM] | Rb.J.V. pA2 [2] | Kb [3] [nM] | G.P.I. pA2 [4] | metabolised at 0.5 h, 42.1 μmol/L [5] [%] | Kb [6] [nM] | Kb [4] [nM] | metabolised at 0.5 h [5] [%] |
| --- | --- | --- | --- | --- | --- | --- | --- | --- |
| CC[C@H](C)[C@H](NC(=O)[C@@H](Cc1ccc2ccccc2c1)NC(=O)[C@H](CO)NC(=O)[C@H](Cc1ccccc1)NC(=O)CNC(=O)[C@@H]1CCCN1C(=O)[C@@H]1CCCN1C(=O)[C@H](CCCN=C(N)N)NC(=O)[C@H](CCCCN)NC(C)=O)C(=O)O [AcLys(D-βNal^7, Ile^8)desArg^9BK] (Ac-KRPPGFS[d2Nal]I-OH) | 3.24 |  |  |  |  |  |  |  |
| CC(C)C[C@H](NC(=O)[C@@H]1CCCN1C(=O)[C@H](CO)NC(=O)[C@H](Cc1ccccc1)NC(=O)CNC(=O)[C@@H]1CCCN1C(=O)[C@@H]1CCCN1C(=O)[C@@H](N)CCCNC(=N)N)C(=O)O [Compound 1, (Leu^8)desArg^9BK, reference compound] |  | Inactive | 57.5 | Inactive | 83 ± 2 |  |  |  |
| CC(C)C[C@H](NC(=O)[C@@H]1CCCN1C(=O)[C@H](CO)NC(=O)[C@H](Cc1ccccc1)NC(=O)CNC(=O)[C@@H]1CCCN1C(=O)[C@@H]1CCCN1C(=O)[C@H](CCCNC(=N)N)NC(=O)[C@@H](N)CCCCN)C(=O)O [Compound 2, Lys(Leu^8)desArg^9BK, reference compound] |  | Inactive |  | Inactive | 74 ± 2 |  |  |  |
| N=C(N)NCCC[C@@H](N)C(=O)N[C@@H](CCCNC(=N)N)C(=O)N1CCC[C@H]1C(=O)N1C[C@H](O)C[C@H]1C(=O)NCC(=O)N[C@@H](Cc1ccccc1)C(=O)N[C@@H](CO)C(=O)N[C@H](Cc1ccccc1)C(=O)N[C@@H](Cc1ccccc1)C(=O)O [Compound 6, D-Arg(Hyp^3, D-Phe^7)desArg^9BK] (H-[dR]RP[Hyp]GFS[dF]F-OH; N-terminus and C-terminus assumed) |  |  | 363 |  |  | 2340 | > 8910 |  |
| CC(C)C[C@H](NC(=O)[C@@H](Cc1ccccc1)NC(=O)[C@H](CO)NC(=O)[C@H](Cc1ccccc1)NC(=O)CNC(=O)[C@@H]1C[C@@H](O)CN1C(=O)[C@@H]1CCCN1C(=O)[C@H](CCCNC(=N)N)NC(=O)[C@H](N)CCCNC(=N)N)C(=O)O [Compound 7, D-Arg(Hyp^3, D-Phe^7, Leu^8)desArg^9BK] (H-[dR]RP[Hyp]GFS[dF]L-OH; N-terminus and C-terminus assumed) |  |  | 275 | Inactive |  | 2090 |  |  |
| CC(C)C[C@H](NC(=O)[C@H]1Cc2ccccc2CN1C(=O)[C@H](CO)NC(=O)[C@H](Cc1ccccc1)NC(=O)CNC(=O)[C@@H]1CCCN1C(=O)[C@@H]1CCCN1C(=O)[C@H](CCCNC(=N)N)NC(=O)[C@@H](N)CCCCN)C(=O)O [Compound 10, Lys(D-Tic^7, Leu^8)desArg^9BK] (H-KRPPGFS[dTic]L-OH; N-terminus and C-terminus assumed) |  |  | 316 |  |  | > 6310 |  |  |
| C[C@H](NC(=O)[C@H]1Cc2ccccc2CN1C(=O)[C@H](CO)NC(=O)[C@H](Cc1ccccc1)NC(=O)CNC(=O)[C@@H]1CCCN1C(=O)[C@@H]1CCCN1C(=O)[C@H](CCCNC(=N)N)NC(=O)[C@H](N)CCCNC(=N)N)C(=O)O [Compound 15, D-Arg(D-Tic^7, Ala^8)desArg^9BK] (H-[dR]RPPGFS[dTic]A-OH; N-terminus and C-terminus assumed) |  | Inactive | > 9550 |  |  |  |  | 21 ± 1 |
| N=C(N)NCCC[C@@H](N)C(=O)N[C@@H](CCCNC(=N)N)C(=O)N1CCC[C@H]1C(=O)N1C[C@H](O)C[C@H]1C(=O)NCC(=O)N[C@@H](Cc1ccccc1)C(=O)N[C@@H](CO)C(=O)N1Cc2ccccc2C[C@@H]1C(=O)N[C@@H](Cc1ccccc1)C(=O)O [Compound 16, D-Arg(Hyp^3, D-Tic^7)desArg^9BK] (H-[dR]RP[Hyp]GFS[dTic]F-OH; N-terminus and C-terminus assumed) |  |  | 186 |  |  | > 2190 |  | 0 |
| N=C(N)NCCC[C@H](N)C(=O)N1CCC[C@H]1C(=O)N1C[C@H](O)C[C@H]1C(=O)NCC(=O)N[C@@H](Cc1cccs1)C(=O)N[C@@H](CO)C(=O)N1Cc2ccccc2C[C@@H]1C(=O)N1[C@H](C(=O)O)C[C@@H]2CCCC[C@@H]21 [Compound 32, (Hyp^3, Thi^5, D-Tic^7, Oic^8)desArg^9BK, reference compound] (H-RP[Hyp]G[2Thi]S[dTic][Oic]-OH; N-terminus and C-terminus assumed) |  |  | 479 |  |  | 447 | > 7590 | 0 |
